Results as given in patent US9011912B2, “Extended-release oral dosage forms for poorly soluble amine drugs” (Abon Pharmaceuticals, LLC, priority 2010, dated 2015).
Where two headings read alike, the source gives them in different places.

Key:
[1] = amine drug, cited from earlier work
[2] = Solubility test of paliperidone with ionizable compound (citric acid) and amphiphilic compound (SoluPlus); format: physicochemical; conditions: for solubility: room temperature
Experimental: A solubility test was performed to quantify the synergistic effects provided by the combination of an ionizable polymer and an amphiphilic compound. In this Example the ionizable compound was citric acid and the amphiphilic compound was SoluPlus®.

Compound | pKa ([1]; second pKa value) | pKa ([1]; first pKa value) | solubility higher in solution containing ionizable compound and amphiphilic polymer compared to ionizable compound without amphiphilic polymer ([2]; 10% Soluplus + 10% citric acid vs 10% citric acid alone) | solubility ([2]; aqueous buffer, in 10% Citric Acid Aqueous Solution) | solubility ([2]; aqueous with cosolvent or surfactant or cyclodextrin, in 10% Soluplus Aqueous Solution) | solubility ([2]; aqueous with cosolvent or surfactant or cyclodextrin, in 10% Soluplus and 10% Citric Acid Aqueous Solution)
CCOc1ccccc1OCCN[C@H](C)Cc1ccc(OC)c(S(N)(=O)=O)c1 [Tamsulosin] | 10.23 |  |  |  |  | 
Cc1cc2c(s1)Nc1ccccc1N=C2N1CCN(C)CC1 [Olanzapine] | 7.4 | 5 |  |  |  | 
Cc1nc2n(c(=O)c1CCN1CCC(c3noc4cc(F)ccc34)CC1)CCCC2O (stereo not drawn) [Paliperidone] | 8.6 | 8.2 | 34.3% | 241 mg/mL | 0.6 mg/mL | 324 mg/mL
